Assay results taken from publication PMC5011342, “A high throughput drug screening assay to identify compounds that promote oligodendrocyte differentiation using acutely dissociated and purified oligodendrocyte precursor cells” (BMC Research Notes, 2016).
Where two headings read alike, the source gives them in different places.

What was measured:
[1] = system: acutely dissociated and purified rat OPCs; assay: Acute OL differentiation assay (MBP expression/cell, immunofluorescent image quantification); type: cell-based; details: sheet "All OLga data"; for activation at 2 µM / activation at 10 µM / activation at 0.4 µM: Rattus norvegicus
How it was run: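 Oligodendrocyte precursor cells were enriched from P6-P7 Sprague–Dawley rat brains by immunopanning (RAN-2 and GalC depletion, O4 selection), plated at 5000 cells/well in serum-free, mitogen-free differentiation media on PDL/laminin 96-well view plates, centrifuged at 200×g, and pre-incubated 1–2 h before test compounds were added in quadruplicate. On DIV4, cells were fixed, stained for MBP and DAPI, imaged automatically, and MBP expression per cell was quantified.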

expanded OPCs = assay: cells; details: for viability at 0.1 µM / viability at 1 µM / viability at 10 µM: Rattus norvegicus, 72 h
How it was run: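 Expanded OPCs seeded at 10,000 cells/well in differentiation media, then exposed to NCC library compounds at 10, 1 and 0.1 µM (quadruplicate, 0.1% DMSO) for three days. Viability read as alamarBlue fluorescence (560/590 nm) after 4 h at 37 °C; tunicamycin 5 ng/ml served as toxicity control.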

[2] = test compound at 2 uM, NCC library screen, relative to quetiapine, read-out: 2 uM (% Quet)
[3] = test compound at 10 uM, NCC library screen, relative to quetiapine, read-out: 10 uM (% Quet)
[4] = read-out: 0.1 µM (% DMSO), alamarBlue viability, NCC library compound at 0.1 µM, sheet "All Tox data"
[5] = read-out: 1 µM (% DMSO), alamarBlue viability, NCC library compound at 1 µM, sheet "All Tox data"
[6] = read-out: 10 µM (% DMSO), alamarBlue viability, NCC library compound at 10 µM, sheet "All Tox data"
[7] = 2 uM test compound, relative to quetiapine, read-out: OL differentiation, 2 uM (% Quet)
[8] = 10 uM test compound, relative to quetiapine, read-out: OL differentiation, 10 uM (% Quet)
[9] = test compound at 2 uM, MBP expression relative to quetiapine, NCC library screen, read-out: 2 uM (% Quet)
[10] = read-out: 0.1 µM (% DMSO), alamarBlue viability of expanded OPCs, compound at 0.1 µM, sheet All Tox data
[11] = read-out: 1 µM (% DMSO), alamarBlue viability of expanded OPCs, compound at 1 µM, sheet All Tox data
[12] = read-out: 10 µM (% DMSO), alamarBlue viability of expanded OPCs, compound at 10 µM, sheet All Tox data
[13] = alamarBlue viability of expanded OPCs, compound at 0.1 µM, relative to DMSO control
[14] = alamarBlue viability of expanded OPCs, compound at 1 µM, relative to DMSO control
[15] = alamarBlue viability of expanded OPCs, compound at 10 µM, relative to DMSO control
[16] = 0.4 uM test compound, relative to quetiapine, read-out: OL differentiation, 0.4 uM (% Quet)
[17] = test compound at 0.4 uM, MBP expression relative to quetiapine, NCC library screen, read-out: 0.4 uM (% Quet)

Q: What does the source list for `Cc1nc2ccc(CN(C)c3ccc(C(=O)N[C@@H](CCC(=O)O)C(=O)O)s3)cc2c(=O)[nH]1` [Raltitrexed]?
A: activation at 2 µM [1, 2]: -13.8%; activation at 10 µM [1, 3]: -1.3%; viability at 0.1 µM (expanded OPCs; [4]): 71.4%; viability at 1 µM (expanded OPCs; [5]): 63.5%; viability at 10 µM (expanded OPCs; [6]): 59.6%

Q: With `CCOC(=O)[C@H](CCc1ccccc1)N[C@@H](C)C(=O)N1[C@H](C(=O)O)C[C@@H]2CCC[C@@H]21` [Ramipril] as the compound, how does the activation at 2 µM [1, 7] read?
A: -3.3%

Q: What about the activation at 10 µM [1, 8] of the same compound?
A: -14.5%

Q: What about the activation at 2 µM [1, 9] of the same compound?
A: 2.5%

Q: What about the activation at 10 µM ([1]; test compound at 10 uM, MBP expression relative to quetiapine, NCC library screen, read-out: 10 uM (% Quet)) of the same compound?
A: -1.1%

Q: And the viability at 0.1 µM (expanded OPCs; [10])?
A: 90.8%

Q: What about the viability at 1 µM (expanded OPCs; [11]) of the same compound?
A: 98.4%

Q: What about the viability at 10 µM (expanded OPCs; [12]) of the same compound?
A: 100%

Q: What about the “0.1 µM (% DMSO)” value (expanded OPCs; rat, 3 days, 0.1 µM) of the same compound?
A: 92.1 % DMSO

Q: What about the “1 µM (% DMSO)” value (expanded OPCs; rat, 3 days, 1 µM) of the same compound?
A: 96.0 % DMSO

Q: And the “10 µM (% DMSO)” value (expanded OPCs; rat, 3 days, 10 µM)?
A: 96.0 % DMSO

Q: With `CNC(=C[N+](=O)[O-])NCCSCc1ccc(CN(C)C)o1` [Ranitidine] as the compound, how does the activation at 2 µM [1, 2] read?
A: -29.4%

Q: And the activation at 10 µM [1, 3]?
A: -7.9%

Q: And the “0.1 µM (% DMSO)” value (expanded OPCs; [13])?
A: 109.0 % DMSO

Q: And the “1 µM (% DMSO)” value (expanded OPCs; [14])?
A: 105.8 % DMSO

Q: And the “10 µM (% DMSO)” value (expanded OPCs; [15])?
A: 106.7 % DMSO

Q: Which activation at 2 µM [1, 7] does the source give for `COc1ccccc1OCC(O)CN1CCN(CC(=O)Nc2c(C)cccc2C)CC1` (stereo not shown) [Ranolazine] here?
A: 11.6%

Q: And the activation at 10 µM [1, 8]?
A: -35.3%

Q: And the viability at 0.1 µM (expanded OPCs; [10])?
A: 99.2%

Q: What about the viability at 1 µM (expanded OPCs; [11]) of the same compound?
A: 92.2%

Q: What about the viability at 10 µM (expanded OPCs; [12]) of the same compound?
A: 95.9%

Q: Which activation at 0.4 µM [1, 16] does the source give for `CC(Cc1ccccc1)(NC(=O)CN)c1ccccc1` (stereo not shown) [Remacemide] here?
A: 5.6%

Q: What about the activation at 2 µM [1, 7] of the same compound?
A: 4.8%

Q: What about the viability at 0.1 µM (expanded OPCs; [4]) of the same compound?
A: 113%

Q: And the viability at 1 µM (expanded OPCs; [5])?
A: 88.6%

Q: What about the viability at 10 µM (expanded OPCs; [6]) of the same compound?
A: 44.7%

Q: What does the source list for `CN1CCN2c3ncccc3Cc3ccccc3C2C1` (stereo not shown) [Remergil]?
A: 2 uM (% Quet) ([1]; test compound at 2 uM, MBP expression relative to quetiapine, NCC library screen): -49.3 % Quet; 10 uM (% Quet) ([1]; test compound at 10 uM, MBP expression relative to quetiapine, NCC library screen): -63.5 % Quet; 0.1 µM (% DMSO) (expanded OPCs): 90.1 % DMSO; 1 µM (% DMSO) (expanded OPCs): 82.0 % DMSO; 10 µM (% DMSO) (expanded OPCs): 62.7 % DMSO

Q: `CCOc1cc(CC(=O)N[C@@H](CC(C)C)c2ccccc2N2CCCCC2)ccc1C(=O)O` [Repaglinide] was tested. Which activation at 2 µM [1, 2] did it give?
A: 13.8%

Q: And the activation at 10 µM [1, 3]?
A: -23.7%

Q: What about the viability at 0.1 µM (expanded OPCs; [4]) of the same compound?
A: 90.5%

Q: What about the viability at 1 µM (expanded OPCs; [5]) of the same compound?
A: 96.8%

Q: What about the viability at 10 µM (expanded OPCs; [6]) of the same compound?
A: 125%

Q: What does the source list for `Oc1ccc(/C=C/c2cc(O)cc(O)c2)cc1` [Resveratrol]?
A: activation at 2 µM [1, 2]: -34.1%; activation at 10 µM [1, 3]: -128%; viability at 0.1 µM (expanded OPCs; [4]): 83.2%; viability at 1 µM (expanded OPCs; [5]): 87.6%; viability at 10 µM (expanded OPCs; [6]): 76.7%

Q: Which activation at 0.4 µM ([1]; test compound at 0.4 uM, NCC library screen, relative to quetiapine, read-out: 0.4 uM (% Quet)) does the source give for `CC1=C(/C=C/C(C)=C/C=C/C(C)=C/C(=O)O)C(C)(C)CCC1` [Retinoic Acid] here?
A: -23%

Q: And the activation at 2 µM [1, 2]?
A: 128%

Q: What about the “0.1 µM (% DMSO)” value (expanded OPCs; [13]) of the same compound?
A: 144.5 % DMSO

Q: What about the “1 µM (% DMSO)” value (expanded OPCs; [14]) of the same compound?
A: 188.5 % DMSO

Q: What about the “10 µM (% DMSO)” value (expanded OPCs; [15]) of the same compound?
A: 58.3 % DMSO

Q: `NC(=O)c1ncn([C@@H]2O[C@H](CO)[C@@H](O)[C@H]2O)n1` [Ribavirin] was tested. Which activation at 0.4 µM [1, 17] did it give?
A: 8.6%

Q: And the activation at 2 µM [1, 9]?
A: 6.7%

Q: And the “0.1 µM (% DMSO)” value (expanded OPCs; [13])?
A: 96.2 % DMSO

Q: What about the “1 µM (% DMSO)” value (expanded OPCs; [14]) of the same compound?
A: 92.8 % DMSO

Q: And the “10 µM (% DMSO)” value (expanded OPCs; [15])?
A: 76.9 % DMSO

Q: What does the source list for `CO[C@H]1/C=C/O[C@@]2(C)Oc3c(C)c(O)c4c(c3C2=O)C2=NC3(CCN(CC(C)C)CC3)NC2=C(NC(=O)/C(C)=C\C=C\[C@H](C)[C@H](O)[C@@H](C)[C@@H](O)[C@@H](C)[C@H](OC(C)=O)[C@@H]1C)C4=O` [Rifabutin]?
A: activation at 0.4 µM [1, 16]: 16.3%; activation at 2 µM [1, 7]: -31.8%; activation at 0.4 µM [1, 17]: -0.04%; activation at 2 µM [1, 9]: -15.6%; viability at 0.1 µM (expanded OPCs; [10]): 86.7%; viability at 1 µM (expanded OPCs; [11]): 79.7%; viability at 10 µM (expanded OPCs; [12]): 37%; 0.1 µM (% DMSO) (expanded OPCs; [13]): 95.3 % DMSO; 1 µM (% DMSO) (expanded OPCs; [14]): 77.1 % DMSO; 10 µM (% DMSO) (expanded OPCs; [15]): 32.3 % DMSO

Q: How did the activation at 2 µM [1, 2] turn out when `CO[C@H]1/C=C/O[C@@]2(C)Oc3c(C)c(O)c4c(O)c(c(/C=N/N5CCN(C)CC5)c(O)c4c3C2=O)NC(=O)/C(C)=C\C=C\[C@H](C)[C@H](O)[C@@H](C)[C@@H](O)[C@@H](C)[C@H](OC(C)=O)[C@@H]1C` [Rifampicin] was run?
A: -69.7%

Q: What about the activation at 10 µM [1, 3] of the same compound?
A: -188%

Q: What about the “0.1 µM (% DMSO)” value (expanded OPCs; [13]) of the same compound?
A: 91.7 % DMSO

Q: What about the “1 µM (% DMSO)” value (expanded OPCs; [14]) of the same compound?
A: 85.6 % DMSO

Q: And the “10 µM (% DMSO)” value (expanded OPCs; [15])?
A: 62.3 % DMSO
